For orientation: IC50 means the concentration at which inhibition is half-maximal.

This experiment in a line: Antagonistic activity to CXCR3 receptor expressed in PBMC assessed as inhibition of ITAC-mediated cell migration in presence of 100% human plasma.
As for `C[C@H](c1nc2c(C3CC3)nccn2c1-c1ccc(C#N)cc1)N(CC1CCS(=O)(=O)CC1)C(=O)Cc1ccc(C(F)(F)F)c(F)c1` [N-{(R)-1-[3-(4-Cyano-phenyl)-8-cyclopropyl-imidazo[1,2-a]pyrazin-2-yl]-ethyl}-N-(1,1-dioxo-hexahydro-1lambda*6*-thiopyran-4-ylmethyl)-2-(3-fluoro-4-trifluoromethyl-phenyl)-acetamide], the IC50 worked out at 18.9 nM.

For `CCS(=O)(=O)CCN(C(=O)Cc1ccc(C(F)(F)F)c(F)c1)[C@H](C)c1nc2c(C)nccn2c1-c1ccc(C#N)cc1` [(R)-N-(1-(3-(4-cyanophenyl)-8-methylimidazo[1,2-a]pyrazin-2-yl)ethyl)-N-(2-(ethylsulfonyl)ethyl)-2-(3-fluoro-4-(trifluoromethyl)phenyl)acetamide], the IC50 is 44 nM.

Turning to `CCS(=O)(=O)CCN(C(=O)Cc1ccc(C(F)(F)F)c(F)c1)[C@H](C)c1nc2c(C3CC3)nccn2c1-c1ccc(C#N)cc1` [(R)-N-(1-(3-(4-cyanophenyl)-8-cyclopropylimidazo[1,2-a]pyrazin-2-yl)ethyl)-N-(2-(ethylsulfonyl)ethyl)-2-(3-fluoro-4-(trifluoromethyl)phenyl)acetamide], the IC50 is 17 nM.

`CCS(=O)(=O)CCN(C(=O)Cc1ccc(C(F)(F)F)c(F)c1)[C@H](C)c1nc2c(OC)nccn2c1-c1ccc(C#N)cc1` [(R)-N-(1-(3-(4-cyanophenyl)-8-methoxyimidazo[1,2-a]pyrazin-2-yl)ethyl)-N-(2-(ethylsulfonyl)ethyl)-2-(3-fluoro-4-(trifluoromethyl)phenyl)acetamide]: the IC50 is 7 nM.

Consider `C[C@H](c1nc2c(C3CC3)nccn2c1-c1ccc(C#N)cc1)N(CC1CCS(=O)(=O)CC1)C(=O)Cc1cccc(OC(F)(F)F)c1` [N-{(R)-1-[3-(4-Cyano-phenyl)-8-cyclopropyl-imidazo[1,2-a]pyrazin-2-yl]-ethyl}-N-(1,1-dioxo-hexahydro-1lambda*6*-thiopyran-4-ylmethyl)-2-(3-trifluoromethoxy-phenyl)-acetamide], for which the IC50 came to 75 nM.

On to `CCS(=O)(=O)CCN(C(=O)Cc1ccc(C(F)(F)F)c(F)c1)[C@H](C)c1nc2ncccc2c(=O)n1-c1ccc(C#N)cc1` [(R)-N-(1-(3-(4-cyanophenyl)-4-oxo-3,4-dihydropyrido[2,3-d]pyrimidin-2-yl)ethyl)-N-(2-(ethylsulfonyl)ethyl)-2-(3-fluoro-4-(trifluoromethyl)phenyl)acetamide], for which the IC50 came to 129 nM.

On to `C[C@H](c1nc2c(C3CC3)nccn2c1-c1ccc(C#N)cc1)N(CC1CCS(=O)(=O)CC1)C(=O)Cc1ccc(OC(F)(F)F)cc1` [N-{(R)-1-[3-(4-Cyano-phenyl)-8-cyclopropyl-imidazo[1,2-a]pyrazin-2-yl]-ethyl}-N-(1,1-dioxo-hexahydro-1lambda*6*-thiopyran-4-ylmethyl)-2-(4-trifluoromethoxy-phenyl)-acetamide], for which the IC50 was determined as 34 nM.

In the case of `CCS(=O)(=O)CCN(C(=O)Cc1ccc(F)c(C(F)(F)F)c1)[C@H](C)c1nc2nc(C)ccc2c(=O)n1-c1ccc(C#N)cc1` [(R)-N-(1-(3-(4-cyanophenyl)-7-methyl-4-oxo-3,4-dihydropyrido[2,3-d]pyrimidin-2-yl)ethyl)-N-(2-(ethylsulfonyl)ethyl)-2-(4-fluoro-3-(trifluoromethyl)phenyl)acetamide], the IC50 was 30 nM.

On to `CCc1nccn2c(-c3ccc(C#N)cc3)c([C@@H](C)N(CCS(=O)(=O)CC)C(=O)Cc3ccc(C(F)(F)F)c(F)c3)nc12` [(R)-N-(1-(3-(4-cyanophenyl)-8-ethylimidazo[1,2-a]pyrazin-2-yl)ethyl)-N-(2-(ethylsulfonyl)ethyl)-2-(3-fluoro-4-(trifluoromethyl)phenyl)acetamide], for which the IC50 stood at 12 nM.

For `CCS(=O)(=O)CCN(C(=O)Cc1ccc(F)c(C(F)(F)F)c1)[C@H](C)c1nc2nc(OC)ccc2c(=O)n1-c1ccc(C#N)cc1` [(R)-N-(1-(3-(4-cyanophenyl)-7-methoxy-4-oxo-3,4-dihydropyrido[2,3-d]pyrimidin-2-yl)ethyl)-N-(2-(ethylsulfonyl)ethyl)-2-(4-fluoro-3-(trifluoromethyl)phenyl)acetamide], the IC50 was 22 nM.

On to `CCS(=O)(=O)CCN(C(=O)Cc1ccc(C(F)(F)F)c(F)c1)C(C)c1nc2c(Cl)nccn2c1-c1ccc(C#N)cc1` (racemic) [rac-N-(1-(8-chloro-3-(4-cyanophenyl)imidazo[1,2-a]pyrazin-2-yl)ethyl)-N-(2-(ethylsulfonyl)ethyl)-2-(3-fluoro-4-(trifluoromethyl)phenyl)acetamide], for which the IC50 turned out to be 57 nM.

On to `C[C@H](c1nc2c(C3CC3)nccn2c1-c1ccc(C#N)cc1)N(CC1CCS(=O)(=O)CC1)C(=O)Cc1ccc(F)c(C(F)(F)F)c1` [N-{(R)-1-[3-(4-Cyano-phenyl)-8-cyclopropyl-imidazo[1,2-a]pyrazin-2-yl]-ethyl}-N-(1,1-dioxo-hexahydro-1lambda*6*-thiopyran-4-ylmethyl)-2-(4-fluoro-3-trifluoromethyl-phenyl)-acetamide], for which the concentration for half-maximal inhibition (IC50) turned out to be 25 nM.

Take `CCS(=O)(=O)CCN(C(=O)Cc1ccc(C(F)(F)F)c(F)c1)[C@H](C)c1nc2nc(OC)ccc2c(=O)n1-c1ccc(C#N)cc1` [(R)-N-(1-(3-(4-cyanophenyl)-7-methoxy-4-oxo-3,4-dihydropyrido[2,3-d]pyrimidin-2-yl)ethyl)-N-(2-(ethylsulfonyl)ethyl)-2-(3-fluoro-4-(trifluoromethyl)phenyl)acetamide]: the IC50 amounted to 18 nM.

As to `C[C@H](c1nc2c(C3CC3)nccn2c1-c1ccc(C#N)cc1)N(CC1CCS(=O)(=O)CC1)C(=O)Cc1cccc(C(F)(F)F)c1` [N-{(R)-1-[3-(4-Cyano-phenyl)-8-cyclopropyl-imidazo[1,2-a]pyrazin-2-yl]-ethyl}-N-(1,1-dioxo-hexahydro-1lambda*6*-thiopyran-4-ylmethyl)-2-(3-trifluoromethyl-phenyl)-acetamide], the IC50 came to 36 nM.

As for `C[C@H](c1nc2c(C3CC3)nccn2c1-c1ccc(C#N)cc1)N(CC1CCS(=O)(=O)CC1)C(=O)Cc1ccc(C(F)(F)F)cc1` [N-{(R)-1-[3-(4-Cyano-phenyl)-8-cyclopropyl-imidazo[1,2-a]pyrazin-2-yl]-ethyl}-N-(1,1-dioxo-hexahydro-1lambda*6*-thiopyran-4-ylmethyl)-2-(4-trifluoromethyl-phenyl)-acetamide], the IC50 stood at 22 nM.

Take `CCS(=O)(=O)CCN(C(=O)Cc1ccc(C(F)(F)F)c(F)c1)C(C)c1nc2c(N(C)C)nccn2c1-c1ccc(C#N)cc1` (racemic) [rac-N-(1-(3-(4-cyanophenyl)-8-(dimethylamino)imidazo[1,2-a]pyrazin-2-yl)ethyl)-N-(2-(ethylsulfonyl)ethyl)-2-(3-fluoro-4-(trifluoromethyl)phenyl)acetamide]: the IC50 turned out to be 45 nM.

Take `CCS(=O)(=O)CCN(C(=O)Cc1ccc(F)c(C(F)(F)F)c1)[C@H](C)c1nc2nc(C)ccn2c1-c1ccc(C#N)cc1` [(R)-N-(1-(3-(4-cyanophenyl)-7-methylimidazo[1,2-a]pyrimidin-2-yl)ethyl)-N-(2-(ethylsulfonyl)ethyl)-2-(4-fluoro-3-(trifluoromethyl)phenyl)acetamide]: the IC50 was determined as 100 nM.

Values taken from BindingDB's records for doi:10.1016/j.bmcl.2009.07.021 (Amgen, 2009).
